According to PubChem BioAssay AID1963959 (Molecular Pharmacology Branch, DTP, NCI, 2024):

Tested on: T-47D spheroids with HUVEC/MSC, viability
Experiment: Anticancer human tumor T-47D cell line growth inhibition [PI3K];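 note: spheroids exposed to agents for seven days before reading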;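 for viability, T/C: percent of DMSO vehicle control luminescence so 100% = untreated growth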
Conditions: for viability, T/C: stronger effect = lower value
Outline: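 Combination activity was assessed by viability in multicellular tumor spheroids carrying HUVEC and MSC components. Agents were tested with PI3K inhibitors from a Cmax-based top dose (or 10 microM) downward in half-log increments.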

[1] = curve of first compound, second compound 0.00316 µM
[2] = curve of first compound, second compound 0.01 µM
[3] = curve of first compound, second compound 0.0316 µM
[4] = curve of first compound, second compound 0.1 µM
[5] = curve of first compound, second compound 0.316 µM
[6] = curve of first compound, second compound 1 µM
[7] = second compound 0.00316 µM, first compound 0.0316 µM
[8] = second compound 0.00316 µM, first compound 0.1 µM
[9] = second compound 0.01 µM, first compound 0.0316 µM
[10] = second compound 0.01 µM, first compound 0.1 µM
[11] = second compound 0.0316 µM, first compound 0.00316 µM
[12] = second compound 0.0316 µM, first compound 0.01 µM
[13] = second compound 0.0316 µM, first compound 0.0316 µM
[14] = second compound 0.0316 µM, first compound 0.1 µM
[15] = second compound 0.1 µM, first compound 0.00316 µM
[16] = second compound 0.1 µM, first compound 0.01 µM
[17] = second compound 0.1 µM, first compound 0.0316 µM
[18] = second compound 0.1 µM, first compound 0.1 µM
[19] = second compound 0.316 µM, first compound 0.00316 µM
[20] = second compound 0.316 µM, first compound 0.01 µM
[21] = second compound 0.316 µM, first compound 0.0316 µM
[22] = second compound 0.316 µM, first compound 0.1 µM
[23] = second compound 1 µM, first compound 0.00316 µM
[24] = second compound 1 µM, first compound 0.01 µM
[25] = second compound 1 µM, first compound 0.0316 µM
[26] = second compound 1 µM, first compound 0.1 µM
[27] = curve of first compound, second compound 3.16 µM
[28] = curve of first compound, second compound 10 µM
[29] = second compound 0.0316 µM, first compound 0.316 µM
[30] = second compound 0.0316 µM, first compound 1 µM
[31] = second compound 0.0316 µM, first compound 3.16 µM
[32] = second compound 0.0316 µM, first compound 10 µM
[33] = second compound 0.1 µM, first compound 0.316 µM
[34] = second compound 0.1 µM, first compound 1 µM
[35] = second compound 0.1 µM, first compound 3.16 µM
[36] = second compound 0.1 µM, first compound 10 µM
[37] = second compound 0.316 µM, first compound 0.316 µM
[38] = second compound 0.316 µM, first compound 1 µM
[39] = second compound 0.316 µM, first compound 3.16 µM
[40] = second compound 0.316 µM, first compound 10 µM
[41] = second compound 1 µM, first compound 0.316 µM
[42] = second compound 1 µM, first compound 1 µM
[43] = second compound 1 µM, first compound 3.16 µM
[44] = second compound 1 µM, first compound 10 µM
[45] = second compound 3.16 µM, first compound 0.0316 µM
[46] = second compound 3.16 µM, first compound 0.1 µM
[47] = second compound 3.16 µM, first compound 0.316 µM
[48] = second compound 3.16 µM, first compound 1 µM
[49] = second compound 10 µM, first compound 0.0316 µM
[50] = second compound 10 µM, first compound 0.1 µM
[51] = second compound 10 µM, first compound 0.316 µM
[52] = second compound 10 µM, first compound 1 µM

## CC(=O)c1c(C)c2cnc(Nc3ccc(N4CCNCC4)cn3)nc2n(C2CCCC2)c1=O + CC(Nc1ccc2c(c1)OCCn1cc(N3C(=O)OCC3C(F)F)nc1-2)C(N)=O
[1]
  IC50: > 0.1 µM
[2]
  IC50: > 0.1 µM
[3]
  IC50: > 0.1 µM
[4]
  IC50: > 0.1 µM
[5]
  IC50: > 0.1 µM
[6]
  IC50: < 0.000316 µM
Second compound 0.00316 µM, first compound 0.000316 µM
  viability, T/C: 92.1%
Second compound 0.00316 µM, first compound 0.001 µM
  viability, T/C: 90.5%
Second compound 0.00316 µM, first compound 0.00316 µM
  viability, T/C: 82.9%
Second compound 0.00316 µM, first compound 0.01 µM
  viability, T/C: 95.3%
[7]
  viability, T/C: 64.4%
[8]
  viability, T/C: 86%
Second compound 0.01 µM, first compound 0.000316 µM
  viability, T/C: 83.8%
Second compound 0.01 µM, first compound 0.001 µM
  viability, T/C: 121%
Second compound 0.01 µM, first compound 0.00316 µM
  viability, T/C: 71.9%
Second compound 0.01 µM, first compound 0.01 µM
  viability, T/C: 75.3%
[9]
  viability, T/C: 78.6%
[10]
  viability, T/C: 69.8%
Second compound 0.0316 µM, first compound 0.000316 µM
  viability, T/C: 70.1%
Second compound 0.0316 µM, first compound 0.001 µM
  viability, T/C: 85.8%
[11]
  viability, T/C: 76.1%
[12]
  viability, T/C: 83.6%
[13]
  viability, T/C: 69.8%
[14]
  viability, T/C: 67.1%
Second compound 0.1 µM, first compound 0.000316 µM
  viability, T/C: 84.7%
Second compound 0.1 µM, first compound 0.001 µM
  viability, T/C: 89.8%
[15]
  viability, T/C: 76%
[16]
  viability, T/C: 65.7%
[17]
  viability, T/C: 77%
[18]
  viability, T/C: 54.5%
Second compound 0.316 µM, first compound 0.000316 µM
  viability, T/C: 59.4%
Second compound 0.316 µM, first compound 0.001 µM
  viability, T/C: 65.9%
[19]
  viability, T/C: 48.9%
[20]
  viability, T/C: 56.7%
[21]
  viability, T/C: 43.4%
[22]
  viability, T/C: 60.1%
Second compound 1 µM, first compound 0.000316 µM
  viability, T/C: 39.9%
Second compound 1 µM, first compound 0.001 µM
  viability, T/C: 55.6%
[23]
  viability, T/C: 49.5%
[24]
  viability, T/C: 41%
[25]
  viability, T/C: 38.9%
[26]
  viability, T/C: 32.6%

## CCCS(=O)(=O)Nc1ccc(F)c(C(=O)c2c[nH]c3ncc(-c4ccc(Cl)cc4)cc23)c1F + Cc1nc(NC(=O)N2CCCC2C(N)=O)sc1-c1ccnc(C(C)(C)C(F)(F)F)c1
[3]
  IC50: 9.2 µM
[4]
  IC50: 8.1 µM
[5]
  IC50: 7.63 µM
[6]
  IC50: 7.35 µM
[27]
  IC50: 4.41 µM
[28]
  IC50: < 0.0316 µM
[13]
  viability, T/C: 95.4%
[14]
  viability, T/C: 92.7%
[29]
  viability, T/C: 100%
[30]
  viability, T/C: 94.4%
[31]
  viability, T/C: 108%
[32]
  viability, T/C: 46.1%
[17]
  viability, T/C: 93.1%
[18]
  viability, T/C: 92.5%
[33]
  viability, T/C: 107%
[34]
  viability, T/C: 91.4%
[35]
  viability, T/C: 85.9%
[36]
  viability, T/C: 41.7%
[21]
  viability, T/C: 99.8%
[22]
  viability, T/C: 93%
[37]
  viability, T/C: 89.3%
[38]
  viability, T/C: 90.5%
[39]
  viability, T/C: 76%
[40]
  viability, T/C: 41.7%
[25]
  viability, T/C: 83.5%
[26]
  viability, T/C: 82.3%
[41]
  viability, T/C: 81.5%
[42]
  viability, T/C: 78.3%
[43]
  viability, T/C: 78.4%
[44]
  viability, T/C: 39.7%
[45]
  viability, T/C: 75.3%
[46]
  viability, T/C: 76.9%
[47]
  viability, T/C: 79%
[48]
  viability, T/C: 81.5%
Second compound 3.16 µM, first compound 3.16 µM
  viability, T/C: 56%
Second compound 3.16 µM, first compound 10 µM
  viability, T/C: 35%
[49]
  viability, T/C: 35.3%
[50]
  viability, T/C: 40.7%
[51]
  viability, T/C: 41.2%
[52]
  viability, T/C: 37.8%
Second compound 10 µM, first compound 3.16 µM
  viability, T/C: 38.3%
Second compound 10 µM, first compound 10 µM
  viability, T/C: 32.8%

## CNC(=O)c1ccc(N2C(=S)N(c3ccc(C#N)c(C(F)(F)F)c3)C(=O)C2(C)C)cc1F + CC(Nc1ccc2c(c1)OCCn1cc(N3C(=O)OCC3C(F)F)nc1-2)C(N)=O
[1]
  IC50: > 10 µM
[2]
  IC50: > 10 µM
[3]
  IC50: > 10 µM
[4]
  IC50: > 10 µM
[5]
  IC50: > 10 µM
[6]
  IC50: > 10 µM
[7]
  viability, T/C: 120%
[8]
  viability, T/C: 98.2%
Second compound 0.00316 µM, first compound 0.316 µM
  viability, T/C: 104%
Second compound 0.00316 µM, first compound 1 µM
  viability, T/C: 81.5%
Second compound 0.00316 µM, first compound 3.16 µM
  viability, T/C: 104%
Second compound 0.00316 µM, first compound 10 µM
  viability, T/C: 88.3%
[9]
  viability, T/C: 105%
[10]
  viability, T/C: 91.5%
Second compound 0.01 µM, first compound 0.316 µM
  viability, T/C: 88.2%
Second compound 0.01 µM, first compound 1 µM
  viability, T/C: 82.3%
Second compound 0.01 µM, first compound 3.16 µM
  viability, T/C: 91.2%
Second compound 0.01 µM, first compound 10 µM
  viability, T/C: 95.5%
[13]
  viability, T/C: 103%
[14]
  viability, T/C: 95%
[29]
  viability, T/C: 87.1%
[30]
  viability, T/C: 77.2%
[31]
  viability, T/C: 91.2%
[32]
  viability, T/C: 90.9%
[17]
  viability, T/C: 94.7%
[18]
  viability, T/C: 82.2%
[33]
  viability, T/C: 99.7%
[34]
  viability, T/C: 86.7%
[35]
  viability, T/C: 90.2%
[36]
  viability, T/C: 72.5%
[21]
  viability, T/C: 71.9%
[22]
  viability, T/C: 79%
[37]
  viability, T/C: 75.2%
[38]
  viability, T/C: 71%
[39]
  viability, T/C: 64.3%
[40]
  viability, T/C: 60.6%
[25]
  viability, T/C: 61%
[26]
  viability, T/C: 68%
[41]
  viability, T/C: 58.8%
[42]
  viability, T/C: 60.4%
[43]
  viability, T/C: 56.2%
[44]
  viability, T/C: 48.8%

## CCN1CCN(Cc2ccc(Nc3ncc(F)c(-c4cc(F)c5nc(C)n(C(C)C)c5c4)n3)nc2)CC1 + CC(Nc1ncnc2nc[nH]c12)c1cc2cccc(Cl)c2c(=O)n1-c1ccccc1
[3]
  IC50: > 1 µM
[4]
  IC50: > 1 µM
[5]
  IC50: > 1 µM
[6]
  IC50: > 1 µM
[27]
  IC50: > 1 µM
[28]
  IC50: > 1 µM
[11]
  viability, T/C: 107%
[12]
  viability, T/C: 97.2%
[13]
  viability, T/C: 91.7%
[14]
  viability, T/C: 74.7%
[29]
  viability, T/C: 95.7%
[30]
  viability, T/C: 94.5%
[15]
  viability, T/C: 114%
[16]
  viability, T/C: 87.1%
[17]
  viability, T/C: 81.8%
[18]
  viability, T/C: 96%
[33]
  viability, T/C: 88.5%
[34]
  viability, T/C: 92.3%
[19]
  viability, T/C: 103%
[20]
  viability, T/C: 98.5%
[21]
  viability, T/C: 82.6%
[22]
  viability, T/C: 78.8%
[37]
  viability, T/C: 93.6%
[38]
  viability, T/C: 106%
[23]
  viability, T/C: 112%
[24]
  viability, T/C: 93.2%
[25]
  viability, T/C: 91%
[26]
  viability, T/C: 84.1%
[41]
  viability, T/C: 89.7%
[42]
  viability, T/C: 106%
Second compound 3.16 µM, first compound 0.00316 µM
  viability, T/C: 93.5%
Second compound 3.16 µM, first compound 0.01 µM
  viability, T/C: 80.9%
[45]
  viability, T/C: 85.6%
[46]
  viability, T/C: 77.2%
[47]
  viability, T/C: 89.9%
[48]
  viability, T/C: 85.9%
Second compound 10 µM, first compound 0.00316 µM
  viability, T/C: 77.7%
Second compound 10 µM, first compound 0.01 µM
  viability, T/C: 89.4%
[49]
  viability, T/C: 82.2%
[50]
  viability, T/C: 72.8%
[51]
  viability, T/C: 71.9%
[52]
  viability, T/C: 82.1%

## Cc1nc(NC(=O)N2CCCC2C(N)=O)sc1-c1ccnc(C(C)(C)C(F)(F)F)c1 (centres undefined)
Compound 0.0316 µM
  viability, T/C: 97.8% [middle of 8 runs]
Compound 0.1 µM
  viability, T/C: 96.2% [middle of 8 runs]
Compound 1 µM
  viability, T/C: 97.6% [middle of 8 runs]
Compound 3.16 µM
  viability, T/C: 77% [middle of 7 runs]
Compound 10 µM
  viability, T/C: 39.9% [middle of 8 runs]
Compound alone, run of 04/24/2023
  IC50: 7.37 µM [middle of 8 runs]
